From PMC6663879, “Biochemical and structural investigations clarify the substrate selectivity of the 2-oxoglutarate oxygenase JMJD6” (The Journal of Biological Chemistry, 2019) come the findings set out here.

In this assay the target is JMJD6^Δ363–403 (Homo sapiens, UniProt Q6NYC1). Briefly: Standard MS-based hydroxylation assay (MALDI-TOF MS) of substrate peptides. Type of assay: biochemical. Details: two more variants (aa 1–362, JMJD6^Δ363–403, and aa 1–343, JMJD6^Δ344–403); His6 (N); made in house; host or cells: Escherichia coli Rosetta2(DE3). The note with it: for Hydroxylation: 10 μM JMJD6^Δ363–403, 100 μM peptide, 100 μM Fe(II), 400 μM ascorbate, 500 μM 2OG, 50 mM HEPES-KOH pH 8.0, 37 °C, 30 min, MALDI-TOF MS; for Hydroxylation / kcat / Km: mean ± S.D. (n = 3); for kcat/Km^app / kcat / Km: standard hydroxylation assay conditions, substrate peptide varied 0–400 μM; for Km: read-out: Km^app; for JMJD6-catalyzed hydroxylation (+16-Da mass shift), result in words: JMJD6^Δ363–403, standard assay conditions, MALDI-TOF MS / LC-MS/MS.

Where [1] appears, read: JMJD6^Δ363–403, MALDI-TOF MS, inhibitor concentration not given.

Where “and” joins values, the source holds several entries; their conditions need not be identical. Equal entries are not always repeated.

For `O=C(O)c1ccnc(C(=O)O)c1` [2,4-PDCA, 2,4-pyridine dicarboxylic acid, reference compound], under setting [1], the “Hydroxylation of ERα 251–262 peptide by JMJD6 on addition of the inhibitor” value was “Hydroxylation was ablated” and the “Hydroxylation of WT pVHL166–177 by JMJD6 in the presence of the inhibitor” value is reported as “did not manifest hydroxylation”.
What is called Km is the substrate concentration at which the rate is half of its maximum. For the compound “DRKSYKHRSKSRDR [CROP357–370, fragment of SR protein CROP/LUC7L3]”, the Hydroxylation is reported as 88.7 ± 4.9%, the “kcat/Km^app” value was determined as 4.2e-05 µM⁻¹ s⁻¹, the kcat is listed as 39.0 ± 3.6 × 10^−4 s^−1 and the Km turned out to be 93 ± 20 µM.
For “ENRHRKRSHSRSRSR [U2AF65_21–35, fragment of the RS region of U2AF65]”, in that order: 74.7 ± 4.1%, 6.8e-05 µM⁻¹ s⁻¹, 40.0 ± 2.2 × 10^−4 s^−1 and 59 ± 8.6 µM.
“ERGRRSRSTSKT [SRSF11_299–310, fragment of SRSF11]” had a Hydroxylation of 6.40 ± 0.90%.
Take “ERα251–262K252A: ERα 251–262 peptide with alanine substitution K252A (MAGGIRKDRRGG; UniProt P03372 251-262, looked up, fragment K252A)”: the “JMJD6-catalyzed hydroxylation (+16-Da mass shift), result in words” value was “Hydroxylation was ablated”.
Regarding “ERα251–262K257A: ERα 251–262 peptide with alanine substitution K257A (MKGGIRADRRGG; UniProt P03372 251-262, looked up, fragment K257A)”, the “JMJD6-catalyzed hydroxylation (+16-Da mass shift), result in words” value is “Hydroxylation was ablated”.
As to “H3_1–25: histone 3 peptide with unmodified arginine residues”, the “JMJD6-catalyzed hydroxylation (+16-Da mass shift), result in words” value was “hydroxylation of lysine residues was also observed”.
The same measure, in the same setting: in the case of “H4_1–30: histone 4 peptide with unmodified arginine residues” it was “hydroxylation of lysine residues was also observed”.
Take “KRHSRSRSRS [Acinus S′95–604, fragment of Acinus S′]”: the Hydroxylation came to 12.5 ± 3.0%.
The same measure, in the same setting: under “KSKERKRSRDRE [RBM39_51–62, fragment of RBM39]” stands 37.0 ± 7.6%.
Turning to “NPKRSRSREHRR [LUC7L2_267–278, reported JMJD6 substrate, fragment of SR protein LUC7L2, reference compound]”, the Hydroxylation is recorded as 98.5 ± 4.8%; the “kcat/Km^app” value is 0.000208 µM⁻¹ s⁻¹; the kcat is 106 × 10^−4 s^−1 and 106 ± 4.0 × 10^−4 s^−1; the Michaelis-Menten constant (Km) turned out to be 51 ± 4.6 µM.
“PRSRSRSRDRRRKE [Acinus S′447–460, fragment of Acinus S′]” yielded a Hydroxylation of 25.6 ± 2.8%.
Turning to “RDRRRRSKPLTRGAK [U2AF65_55–70, fragment of U2AF65]”, the Hydroxylation stood at 61.0 ± 6.4%, the “kcat/Km^app” value worked out at 3.4e-05 µM⁻¹ s⁻¹, the kcat is given as 43.0 ± 5.2 × 10^−4 s^−1 and the Km was 124 ± 34 µM.
For “RKHRSRSRDRRRSKS [CROP341–355, fragment of SR protein CROP/LUC7L3]”, in that order: 92.7 ± 6.9%, 0.000217 µM⁻¹ s⁻¹, 165 ± 12 × 10^−4 s^−1 and 76 ± 13 µM.
For “RKRSRSKERRRS [RBM39_71–82, fragment of RBM39]”, in that order: 87.6 ± 7.0%, 0.000322 µM⁻¹ s⁻¹, 284 ± 11 × 10^−4 s^−1 and 88 ± 8.7 µM.
Consider RSKKRKKSKSRS [RBM39_31–42], for which the Hydroxylation came out at 99.0 ± 0.70%, the “kcat/Km^app” value was found to be 0.000455 µM⁻¹ s⁻¹, the kcat is 255 ± 15 × 10^−4 s^−1 and the Km worked out at 56 ± 9.6 µM.
For “RSKSPRRRRSHSR [SRSF11_286–298, fragment of SRSF11]”, in that order: 90.5 ± 5.0%, 0.000195 µM⁻¹ s⁻¹, 80.0 ± 3.9 × 10^−4 s^−1 and 41 ± 6.6 µM.
